This is an account of results in publication PMC11940079, “Identification of a Possible Endocannabinoid-Mediated Mechanism of Action of Cetylated Fatty Acids” (Biomolecules, 2025).

Molecules are shown by their SMILES.

Assay [1] deals with T1, human monoacylglycerol lipase (hMAGL) (Homo sapiens, UniProt Q99685).
T1 construct: gene MGLL
T1 sequence (Q99685 1-303): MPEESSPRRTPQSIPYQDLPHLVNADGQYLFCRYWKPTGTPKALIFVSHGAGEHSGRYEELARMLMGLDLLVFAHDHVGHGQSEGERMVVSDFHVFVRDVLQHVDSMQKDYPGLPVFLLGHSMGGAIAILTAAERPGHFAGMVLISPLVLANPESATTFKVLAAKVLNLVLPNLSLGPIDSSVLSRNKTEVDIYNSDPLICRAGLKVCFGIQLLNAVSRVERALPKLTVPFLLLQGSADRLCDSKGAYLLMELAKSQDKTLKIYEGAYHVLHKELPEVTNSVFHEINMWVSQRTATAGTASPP
Nature of the assay: spectrophotometric assay with 4-nitrophenyl acetate, single-point % inhibition at […]. Type of assay: biochemical.

The target in assay [2] is T1, human monoacylglycerol lipase (hMAGL). Briefly: spectrophotometric assay with 4-nitrophenyl acetate, recombinant human MAGL, dose-response. Format: biochemical.

As to `CCCCCC/C=C\CCCCCCCC(=O)OCCCCCCCCCCCCCCCC` [3h, Hexadecyl (Z)-hexadec-9-enoate], the “spectrophotometric assay with 4-nitrophenyl acetate, single-point % inhibition a” value in assay [1] is reported as “its close analogue 3h (cetyl palmitoleate), possessing the double bond at the same distance from the ester group as 3g, proved to be equally active”.
Broadly, the IC50 is the concentration needed to halve the response being measured. For `CCCCCCCCCCCCCCCCOC(=O)CCCCCCCCC` [3b, Hexadecyl decanoate], the IC50 in assay [2] turned out to be 36 ± 4 µM.
Regarding `CCCCCCCC/C=C\CCCCCCCC(=O)OCCCCCCCCCCCCCCCC` [3i, Hexadecyl oleate], the “spectrophotometric assay with 4-nitrophenyl acetate, single-point % inhibition a” value in assay [1] was “their longer analogue 3i (cetyl oleate) displayed slightly weaker potency in the same test”.
